Read-outs that look alike come from different tables or passages of the source.
Target: T1, Human Recombinant Matriptase 2 (Homo sapiens, UniProt Q8IU80)
T1 construct: made in house
T1 sequence (Q8IU80 1-811): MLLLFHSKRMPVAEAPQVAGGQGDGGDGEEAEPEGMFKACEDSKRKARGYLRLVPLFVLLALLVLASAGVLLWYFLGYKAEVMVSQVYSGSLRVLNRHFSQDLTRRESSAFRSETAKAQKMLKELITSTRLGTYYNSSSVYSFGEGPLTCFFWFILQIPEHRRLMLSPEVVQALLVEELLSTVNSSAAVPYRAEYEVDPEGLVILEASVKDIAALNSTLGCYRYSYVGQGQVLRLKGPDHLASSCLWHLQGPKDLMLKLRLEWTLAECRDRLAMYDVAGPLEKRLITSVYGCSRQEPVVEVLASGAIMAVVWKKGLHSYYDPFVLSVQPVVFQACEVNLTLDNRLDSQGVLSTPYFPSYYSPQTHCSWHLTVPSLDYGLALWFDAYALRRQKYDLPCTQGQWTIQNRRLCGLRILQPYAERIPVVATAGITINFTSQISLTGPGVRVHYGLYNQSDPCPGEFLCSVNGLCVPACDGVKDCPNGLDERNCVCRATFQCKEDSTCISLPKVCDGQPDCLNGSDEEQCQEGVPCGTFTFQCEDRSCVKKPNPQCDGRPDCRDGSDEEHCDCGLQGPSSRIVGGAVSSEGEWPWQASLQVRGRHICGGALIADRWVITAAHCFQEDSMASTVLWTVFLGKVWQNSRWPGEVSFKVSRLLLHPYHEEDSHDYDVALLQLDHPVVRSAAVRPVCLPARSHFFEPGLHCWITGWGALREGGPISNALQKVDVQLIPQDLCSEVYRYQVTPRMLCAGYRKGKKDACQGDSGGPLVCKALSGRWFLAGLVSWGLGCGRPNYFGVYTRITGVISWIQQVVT
Assay: Matriptase 2 inhibition, fluorescence based assay (Method I)
Assay type: biochemical
Procedure, shortened: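 Fluorogenic readout (Ex 360/Em 480 nm) taken 60 min after adding 62 μM Boc-Gln-Ala-Arg-AMC, following 30-min enzyme–compound preincubation at 25 °C. Conditions: 3.5 nM in-house enzyme, pH 7.5 Tris/NaCl/gelatin buffer, 1% DMSO; percent inhibition versus concentration fitted by variable-slope sigmoidal regression.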

[1] = Table A, Ki of Matriptase-2 given as class symbols, read-out: Mat-2 Ki
[2] = Table B, Human Recombinant Matriptase 2, 3.5 nM enzyme, 62 μM substrate, 30 mins preincubation, read-out: Mean Ki
[3] = Table A, Ki of Matriptase-2, read-out: Mat-2 Ki

Structure (SMILES)	Ki [1] [nM]	Ki [3] [nM]	also measured
NCc1ccc2cc(C(=O)O)n(Cc3cc(NS(=O)(=O)CCCn4cnnn4)cc4ccccc34)c2n1 [Compound 264, 6-(aminomethyl)-1-({3-[3-(1H-1,2,3,4-tetrazol-1-yl)propanesulfonamido]-naphthalen-1-yl}methyl)-1H-pyrrolo[2,3-b]pyr-idine-2-carboxylic acid]	100 to 500	–	–
CN1CCC(COC(=O)c2cc3ccc(CN)nc3n2Cc2cccc3cnccc23)CC1 [Compound 2.46]	–	–	Ki [2]: > 3000 nM
CC(C)N(CCOC(=O)Nc1cc(Cn2c(C(=O)O)cc3ccc(CN)nc32)c2ccccc2c1)C(C)C [Compound 338, 6-(aminomethyl)-1-({3-[({2-[bis(propan-2-yl)-amino]ethoxy}carbonyl)-amino]naphthalen-1-yl}-methyl)-1H-pyrrolo[2,3-b]pyridine-2-carboxylic acid]	500 to 3000	–	–
CN1CCC(c2nnc(-c3cc4ccc(CN)nc4n3Cc3cc(NS(=O)(=O)Cc4ccccc4)cc4ccccc34)o2)CC1 [Compound 345, N-(4-((6-(aminomethyl)-2-(5-(1-methylpiperidin-4-yl)-1,3,4-oxadiazol-2-yl)-1H-pyrrolo[2,3-b]pyridin-1-yl)methyl)naphthalen-2-yl)-1-phenylmethanesulfonamide]	≤ 100	–	–
Cc1cc(CS(=O)(=O)Nc2cc(Cn3c(C(=O)O)cc4ccc(CN)nc43)c3ccccc3c2)no1 [Compound 250, 6-(aminomethyl)-1-({3-[(5-methyl-1,2-oxazol-3-yl)methanesulfon-amido]naphthalen-1-yl}-methyl)-1H-pyrrolo[2,3-b]pyridine-2-carboxylic acid]	500 to 3000	–	–
CN1CCCC1COC(=O)Nc1cc(Cn2c(C(=O)O)cc3ccc(CN)cc32)c2ccccc2c1 (racemic) [Compound 398, 6-(aminomethyl)-1-{[3-({[(1-methylpyrrolidin-2-yl)methoxy]carbon-yl}amino]naphthalen-1-yl]methyl}-1H-indole-2-carboxylic acid]	–	–	Ki (Table A, Ki of Matriptase-2, class symbols, read-out: Mat-2 Ki): 500 to 3000 nM
CCOC(=O)c1cc2ccc(CN)nc2n1Cc1cc(NS(=O)(=O)CC2CCNCC2)cc2ccccc12 [Compound 241, ethyl 6-(aminomethyl)-1-({3-[(piperidin-4-yl)-methanesulfonamido]-naphthalen-1-yl}methyl)-1H-pyrrolo[2,3-b]pyr-idine-2-carboxylate]	100 to 500	–	–
Cn1ccnc1CCOC(=O)c1cc2ccc(CN)nc2n1Cc1cc(NS(=O)(=O)Cc2ccsc2)cc2ccccc12 [Compound 2.29]	–	–	Ki [2]: ≤ 100 nM
NCc1ccc2cc(C(=O)O)n(Cc3cc(NS(=O)(=O)Cc4c(Cl)cccc4Cl)cc4ccccc34)c2n1 [Compound 251, 6-(aminomethyl)-1-({3-[(2,6-dichlorophenyl)-methanesulfonamido]-naphthalen-1-yl}methyl)-1H-pyrrolo[2,3-b]pyr-idine-2-carboxylic acid]	500 to 3000	–	–
CN1CCC(COC(=O)c2cc3ccc(CN)nc3n2Cc2cc(NS(=O)(=O)Cc3ccccc3)cc3c2CCCC3)CC1 [Compound 286, (1-methylpiperidin-4-yl)methyl 6-(aminomethyl)-1-((3-((phenylmethyl)sulfonamido)-5,6,7,8-tetrahydronaphthalen-1-yl)methyl)-1H-pyrrolo[2,3-b]pyridine-2-carboxylate]	≤ 100	–	–
C=Cc1c(N)cc(Br)cc1Cn1c(C(=O)OCC2CCN(C)CC2)cc2ccc(CN)nc21 [Compound 2.30]	–	–	Ki [2]: > 3000 nM
NCc1ccc2cc(C(=O)O)n(Cc3cc(NS(=O)(=O)C[C@H]4COCCN4)cc4ccccc34)c2n1 (racemic) [Compound 261, 6-(aminomethyl)-1-({3-[(morpholin-3-l)methane-sulfonamido]naphthalen-1-yl}methyl)-1H-pyr-rolo[2,3-b]pyridine-2-carboxylic acid]	100 to 500	–	–
NCc1ccc2cc(C(=O)O)n(Cc3cc(NS(=O)(=O)CCCN4CCCC4)cc4ccccc34)c2n1 [Compound 232, 6-(aminomethyl)-1-({3-[3-(pyrrolidin-1-yl)-propanesulfonamido]-naphthalen-1-yl}methyl)-1H-pyrrolo[2,3-b]pyr-idine-2-carboxylic acid]	100 to 500	–	–
NCc1ccc2cc(C(=O)O)n(Cc3cc(NS(=O)(=O)CC[C@H]4CCCN4)cc4ccccc34)c2n1 [Compound 217, 6-(aminomethyl)-1-[(3-{2-[(2R)-pyrrolidin-2-yl]ethanesulfonamido}-naphthalen-1-yl)methyl]-1H-pyrrolo[2,3-b]pyr-idine-2-carboxylic acid]	100 to 500	–	–

Further lines, with some results ahead:

Ki [1] [nM]	Ki [3] [nM]	Structure (SMILES)	also measured
–	≤ 100	CC(C)(CN)COC(=O)c1cc2ccc(CN)nc2n1Cc1cc(NS(=O)(=O)Cc2ccccc2)cc2ccccc12 [Compound 40, 3-amino-2,2-dimethyl-propyl 6-(aminomethyl)-1-{[3-(phenylmethane-sulfonamido)naphthalen-1-yl]methyl}-1H-pyrrolo-[2,3-b]pyridine-2-car-boxylate]	–
100 to 500	–	NCc1ccc2cc(C(=O)O)n(Cc3cc(NS(=O)(=O)Cc4ccccc4F)cc4ccccc34)c2n1 [Compound 227, 6-(aminomethyl)-1-({3-[(2-fluorophenyl)meth-anesulfonamido]naph-thalen-1-yl}methyl)-1H-pyrrolo[2,3-b]pyridine-2-carboxylic acid]	–
–	≤ 100	Cn1cncc1COC(=O)c1cc2ccc(CN)nc2n1Cc1cc(NS(=O)(=O)Cc2ccccc2)cc2ccccc12 [Compound 20, (1-methyl-1H-imidazol-5-yl)methyl 6-(amino-methyl)-1-{[3-(phenyl-methanesulfonamido)-naphthalen-1-yl]methyl}-1H-pyrrolo[2,3-b]pyr-idine-2-carboxylate]	–
≤ 100	–	Cc1ccccc1CS(=O)(=O)Nc1cc(Cn2c(C(=O)O)cc3ccc(CN)nc32)c2ccccc2c1 [Compound 212, 6-(aminomethyl)-1-({3-[(2-methylphenyl)meth-anesulfonamido]naph-thalen-1-yl}methyl)-1H-pyrrolo[2,3-b]pyridine-2-carboxylic acid]	–
–	≤ 100	CN(C)CCCCCOC(=O)c1cc2ccc(CN)nc2n1Cc1cc(NS(=O)(=O)Cc2ccccc2)cc2ccccc12 [Compound 34, 5-(dimethylamino)pentyl 6-(aminomethyl)-1-{[3-(phenylmethanesulfon-amido)naphthalen-1-yl]-methyl}-1H-pyrrolo[2,3-b]pyridine-2-carboxylate]	–
–	≤ 100	CN1CCC(COC(=O)c2cc3ccc(CN)nc3n2Cc2cc(NS(=O)(=O)Cc3cccs3)cc3ccccc23)CC1 [Compound 146, (1-methylpiperidin-4-yl)-methyl 6-(aminometh-yl)-1-({3-[(thiophen-2-yl)methanesulfonamido]-naphthalen-1-yl}methyl)-1H-pyrrolo[2,3-b]pyr-idine-2-carboxylate]	–
–	500 to 3000	NCc1ccc2cc(C(=O)OCC3CC3)n(Cc3cc(NS(=O)(=O)Cc4ccccc4)cc4ccccc34)c2n1 [Compound 120, cyclopropylmethyl 6-(aminomethyl)-1-{[3-(phenylmethanesulfon-amido)naphthalen-1-yl]-methyl}-1H-pyrrolo[2,3-b]pyridine-2-carboxylate]	–
–	≤ 100	NCc1ccc2cc(C(=O)OCC3(CN)CC3)n(Cc3cc(NS(=O)(=O)Cc4ccccc4)cc4ccccc34)c2n1 [Compound 55, [1-(aminomethyl)cyclo-propyl]methyl 6-(amino-methyl)-1-{[3-(phenyl-methanesulfonamido)-naphthalen-1-yl]methyl}-1H-pyrrolo[2,3-b]pyr-idine-2-carboxylate]	–
100 to 500	–	Cc1cccc(CS(=O)(=O)Nc2cc(Cn3c(C(=O)O)cc4ccc(CN)nc43)c3ccccc3c2)c1 [Compound 238, 6-(aminomethyl)-1-({3-[(3-methylphenyl)meth-anesulfonamido]naph-thalen-1-yl}methyl)-1H-pyrrolo[2,3-b]pyridine-2-carboxylic acid]	–
–	≤ 100	COCCN1CCC[C@H](COC(=O)c2cc3ccc(CN)nc3n2Cc2cc(NS(=O)(=O)Cc3ccccc3)cc3ccccc23)C1 (racemic) [Compound 144, rac-[(3R)-1-(2-methoxy-ethyl)piperidin-3-yl]-methyl 6-(aminometh-yl)-1-(phenylmethane-sulfonamido)naphthalen-1-yl]methyl}-1H-pyrrolo-[2,3-b]pyridine-2-car-boxylate]	–
–	≤ 100	C[C@@H](CCOC(=O)c1cc2ccc(CN)nc2n1Cc1cc(NS(=O)(=O)Cc2ccccc2)cc2ccccc12)N1CCOCC1 (racemic) [Compound 143, rac-(3R)-3-(morpholin-4-yl)butyl 6-(aminometh-yl)-1-{[3-(phenylmeth-anesulfonamido)naph-thalen-1-yl]methyl}-1H-pyrrolo-[2,3-b]pyridine-2-carboxylate]	–
